ChEMBL document CHEMBL1135082, “Benzylidene rhodanines as novel inhibitors of UDP-N-acetylmuramate/L-alanine ligase” (Bioorg Med Chem Lett, 2002)
Values after ≈ are worked out from the molar mass of the structure shown.

Experiments:
Staphylococcus aureus = test: The whole cell inhibitory activity was evaluated against Gram-positive methicillin-resistant Staphylococcus aureus (MRSA); assay type: functional
Escherichia coli = test: The whole cell inhibitory activity was evaluated against the Gram-negative Escherichia coli; Not active; assay type: functional
[1] = Inhibitory concentration against recombinant UDP-N-Acetylmuramate/L-Alanine Ligase (MurC) enzyme
CHO [2] = test: Cytotoxic effect at mammalian Chinese hamster ovary (CHO) cells; assay type: functional, cell-based; settings: Cricetulus griseus
CHO [3] = test: Cytotoxic effect at mammalian Chinese hamster ovary (CHO) cells; Toxic; assay type: functional, cell-based; settings: Cricetulus griseus

| SMILES | MIC (Staphylococcus aureus) [µM] | MIC (Escherichia coli) [µM] | IC50 [1] [µM] | IC50 (CHO [2]) [µM] | IC50 (CHO [3]) [µM] |
| --- | --- | --- | --- | --- | --- |
| O=C1NC(=S)S/C1=C\c1cc([N+](=O)[O-])ccc1Oc1ccc(Cl)cc1 | > 76 | > 76 | 24 |  |  |
| O=C1NC(=S)S/C1=C\c1ccc(/C=C/c2ccccc2)cc1 | > 93 | > 93 | 18 |  |  |
| O=C1NC(=S)S/C1=C\c1cccc(Oc2ccccc2)c1 | 79 (≈ 24.8 µg/mL) | > 87 | 22 | > 96 |  |
| O=C1NC(=S)S/C1=C/c1cc([N+](=O)[O-])ccc1SCc1ccc(Cl)cc1 | 31 (≈ 13.1 µg/mL) | > 65 | 27 |  | 29 |
| O=C1NC(=S)S/C1=C\c1cc(OCc2ccccc2)cc(OCc2ccccc2)c1 | > 69 | > 69 | 12 |  |  |
| O=C1NC(=S)S/C1=C\c1cc([N+](=O)[O-])ccc1Sc1ccc(Cl)cc1 | 70 (≈ 28.6 µg/mL) | > 87 | 24 | > 73 |  |
